Assay results from ChEMBL document CHEMBL1201862, “PubChem BioAssay data set” (2004).
The source made the active and inactive calls.

Assays:
Genome polyprotein = Genome polyprotein (dengue virus type 2, UniProt P29990); experiment: flavivirus cap methylation enzyme inhibition – biochemical, confirmation dose response, primary screen (AID 588689); assay type: functional
Large T antigen = Large T antigen (Simian virus 40, UniProt P03070); assay type: functional, Betapolyomavirus macacae;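 note: Confirmatory-stage PubChem screen for compounds that inhibit SV40 T antigen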
Large T antigen, sequence (P03070 whole entry): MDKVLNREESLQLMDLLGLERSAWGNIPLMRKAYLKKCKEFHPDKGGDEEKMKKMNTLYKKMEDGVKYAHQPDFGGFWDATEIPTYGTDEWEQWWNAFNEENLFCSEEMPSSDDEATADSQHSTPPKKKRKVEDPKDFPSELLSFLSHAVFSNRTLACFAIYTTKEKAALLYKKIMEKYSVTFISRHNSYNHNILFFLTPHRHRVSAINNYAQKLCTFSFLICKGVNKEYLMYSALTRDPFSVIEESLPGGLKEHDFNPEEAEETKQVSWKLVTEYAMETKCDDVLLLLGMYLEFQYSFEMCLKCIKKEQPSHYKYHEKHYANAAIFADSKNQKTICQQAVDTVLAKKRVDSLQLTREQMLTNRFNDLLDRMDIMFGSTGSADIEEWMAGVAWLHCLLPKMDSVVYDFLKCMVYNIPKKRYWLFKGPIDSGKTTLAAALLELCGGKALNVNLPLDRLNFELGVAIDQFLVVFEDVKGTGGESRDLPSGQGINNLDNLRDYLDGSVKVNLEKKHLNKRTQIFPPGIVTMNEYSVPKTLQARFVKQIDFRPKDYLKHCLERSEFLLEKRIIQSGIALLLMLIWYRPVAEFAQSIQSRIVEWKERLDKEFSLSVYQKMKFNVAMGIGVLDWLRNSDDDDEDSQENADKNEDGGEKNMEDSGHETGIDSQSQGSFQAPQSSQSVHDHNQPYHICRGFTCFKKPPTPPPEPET

Nonstructural protein 1 = Nonstructural protein 1 (Influenza A virus, UniProt Q194T2); assay type: functional, Influenza A virus (A/California/07/2009(H1N1))
Nonstructural protein 1, sequence (Q194T2 whole entry): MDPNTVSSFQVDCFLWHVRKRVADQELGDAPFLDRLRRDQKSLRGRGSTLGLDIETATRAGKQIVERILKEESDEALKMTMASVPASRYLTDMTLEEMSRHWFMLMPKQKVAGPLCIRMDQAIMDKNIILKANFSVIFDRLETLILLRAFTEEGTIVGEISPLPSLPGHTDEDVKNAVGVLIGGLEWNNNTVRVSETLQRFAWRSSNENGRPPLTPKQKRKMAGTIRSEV

[1] = Luminescence Cell-Based Dose Confirmation HTS to Identify Inhibitors of Platelet Dense Granule Release. [Related pubchem assays: 1663 (Primary HTS), 1678 (Summary of Project)]; assay type: functional
[2] = target: Luciferin 4-monooxygenase (Photinus pyralis, UniProt P08659); experiment: inhibition of purified Photinus pyralis luciferase – biochemical, luminescence, dose response (AID 1891)
Luciferin 4-monooxygenase, sequence (P08659 whole entry): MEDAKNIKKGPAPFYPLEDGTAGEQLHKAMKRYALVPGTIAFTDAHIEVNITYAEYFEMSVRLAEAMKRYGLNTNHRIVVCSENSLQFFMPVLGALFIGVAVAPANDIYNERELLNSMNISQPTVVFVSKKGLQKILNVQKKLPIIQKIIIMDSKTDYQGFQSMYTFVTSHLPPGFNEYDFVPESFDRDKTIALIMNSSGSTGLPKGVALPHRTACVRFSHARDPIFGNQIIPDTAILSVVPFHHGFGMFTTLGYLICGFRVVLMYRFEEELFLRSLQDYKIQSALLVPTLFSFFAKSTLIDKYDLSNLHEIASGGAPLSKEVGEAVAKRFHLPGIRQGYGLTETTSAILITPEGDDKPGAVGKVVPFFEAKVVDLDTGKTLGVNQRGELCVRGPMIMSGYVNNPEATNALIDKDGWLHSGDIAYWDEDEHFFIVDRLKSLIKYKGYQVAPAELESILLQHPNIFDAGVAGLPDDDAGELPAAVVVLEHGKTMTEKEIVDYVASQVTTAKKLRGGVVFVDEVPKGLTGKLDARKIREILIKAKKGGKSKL

[3] = target: T1, Ubiquitin-conjugating enzyme E2 N (Homo sapiens, UniProt P61088); assay type: functional;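 note: Dose-response confirmation in a TR-FRET assay detecting UBC13-driven polyubiquitin chain formation, inhibition measured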
T1 sequence (P61088 whole entry): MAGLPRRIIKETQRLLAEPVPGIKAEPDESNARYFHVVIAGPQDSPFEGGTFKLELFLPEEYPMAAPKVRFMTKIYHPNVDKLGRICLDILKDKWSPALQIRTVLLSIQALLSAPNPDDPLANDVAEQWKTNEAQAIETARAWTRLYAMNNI

[4] = target: T2, Histone-lysine N-methyltransferase NSD2 (Homo sapiens, UniProt O96028); assay type: biochemical
T2 sequence (O96028 whole entry): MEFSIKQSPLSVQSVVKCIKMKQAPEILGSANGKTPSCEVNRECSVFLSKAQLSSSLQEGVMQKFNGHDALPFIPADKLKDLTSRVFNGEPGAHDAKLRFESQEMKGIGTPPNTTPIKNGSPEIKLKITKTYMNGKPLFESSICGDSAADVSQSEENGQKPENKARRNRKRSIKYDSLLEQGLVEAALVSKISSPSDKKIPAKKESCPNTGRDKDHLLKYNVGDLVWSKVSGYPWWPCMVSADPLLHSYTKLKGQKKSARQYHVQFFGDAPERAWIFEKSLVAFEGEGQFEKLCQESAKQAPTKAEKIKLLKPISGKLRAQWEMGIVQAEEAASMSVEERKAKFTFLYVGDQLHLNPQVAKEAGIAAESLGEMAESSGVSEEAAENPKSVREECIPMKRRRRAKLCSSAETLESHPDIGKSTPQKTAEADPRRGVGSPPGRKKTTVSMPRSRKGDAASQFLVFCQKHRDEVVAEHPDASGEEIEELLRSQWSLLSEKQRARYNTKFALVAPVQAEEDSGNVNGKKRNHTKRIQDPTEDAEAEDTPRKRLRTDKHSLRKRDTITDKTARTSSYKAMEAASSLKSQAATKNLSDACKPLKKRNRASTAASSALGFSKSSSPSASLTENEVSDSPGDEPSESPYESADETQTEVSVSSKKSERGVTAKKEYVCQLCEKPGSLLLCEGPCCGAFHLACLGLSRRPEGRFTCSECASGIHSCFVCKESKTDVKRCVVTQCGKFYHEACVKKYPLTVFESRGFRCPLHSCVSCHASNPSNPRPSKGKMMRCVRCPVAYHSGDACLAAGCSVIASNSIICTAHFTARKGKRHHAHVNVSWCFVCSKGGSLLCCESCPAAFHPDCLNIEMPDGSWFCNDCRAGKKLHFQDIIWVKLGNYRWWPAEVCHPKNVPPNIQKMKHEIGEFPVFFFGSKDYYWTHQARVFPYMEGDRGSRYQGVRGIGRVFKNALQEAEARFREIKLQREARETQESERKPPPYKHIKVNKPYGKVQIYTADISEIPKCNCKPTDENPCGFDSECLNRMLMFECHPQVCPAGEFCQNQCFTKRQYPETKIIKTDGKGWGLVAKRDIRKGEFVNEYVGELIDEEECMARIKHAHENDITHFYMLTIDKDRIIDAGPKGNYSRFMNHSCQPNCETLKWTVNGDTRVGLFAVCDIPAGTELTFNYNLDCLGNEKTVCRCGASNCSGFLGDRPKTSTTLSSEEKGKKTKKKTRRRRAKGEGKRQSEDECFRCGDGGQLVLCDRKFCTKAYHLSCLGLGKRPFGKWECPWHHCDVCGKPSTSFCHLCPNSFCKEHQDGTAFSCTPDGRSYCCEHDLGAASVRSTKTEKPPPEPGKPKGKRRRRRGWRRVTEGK

H9c2 = experiment: cells; assay type: functional, cell-based; conditions: Rattus norvegicus, H9c2, Myocardium;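 note: confirmatory concentration-response retest of ultra-high-throughput screening hits for modulation of myocardial damage; cell death induced by hydrogen peroxide oxidative stress; compound pretreatment for 60 min then peroxide exposure for 2 h; potency is for protecting the cells against peroxide damage rather than for killing them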
[5] = target: T3, Corticotropin-releasing factor receptor 2/Corticotropin-releasing factor-binding protein (Homo sapiens, UniProt P24387+Q13324); experiment: activators of CRF receptor 2 with binding protein – uHTS hits, confirmation (AID 602473); assay type: functional; conditions: read-out: EC50_Mean
T3 sequence (Q13324 whole entry): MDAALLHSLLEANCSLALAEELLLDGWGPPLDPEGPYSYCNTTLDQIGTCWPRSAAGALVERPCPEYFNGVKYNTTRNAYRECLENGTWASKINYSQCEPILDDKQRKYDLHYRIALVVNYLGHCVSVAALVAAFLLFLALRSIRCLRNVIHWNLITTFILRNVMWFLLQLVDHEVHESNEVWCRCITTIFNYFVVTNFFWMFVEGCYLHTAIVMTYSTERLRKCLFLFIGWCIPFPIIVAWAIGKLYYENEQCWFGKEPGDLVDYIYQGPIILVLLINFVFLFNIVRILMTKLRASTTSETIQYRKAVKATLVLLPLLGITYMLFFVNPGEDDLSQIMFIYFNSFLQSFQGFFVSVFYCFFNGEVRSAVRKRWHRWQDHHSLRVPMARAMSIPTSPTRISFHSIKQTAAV
T3 sequence (P24387 whole entry): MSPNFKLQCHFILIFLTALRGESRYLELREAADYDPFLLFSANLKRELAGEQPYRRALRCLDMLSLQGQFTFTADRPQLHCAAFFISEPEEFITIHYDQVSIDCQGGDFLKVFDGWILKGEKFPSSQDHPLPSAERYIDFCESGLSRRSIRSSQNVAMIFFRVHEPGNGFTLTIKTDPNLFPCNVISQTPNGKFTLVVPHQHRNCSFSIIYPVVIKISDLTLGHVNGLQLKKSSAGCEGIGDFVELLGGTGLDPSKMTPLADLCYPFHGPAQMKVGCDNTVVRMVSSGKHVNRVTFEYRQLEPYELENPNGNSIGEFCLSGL

[6] = target: T3, Corticotropin-releasing factor receptor 2/Corticotropin-releasing factor-binding protein; experiment: Dose Response confirmation of uHTS hits for small molecule antagonists of the CRF-binding protein and CRF-R2 receptor complex.; assay type: functional; conditions: read-out: IC50_Mean
[7] = target: FAD-linked sulfhydryl oxidase ALR (Homo sapiens, UniProt P55789); experiment: ALR-catalysed DTT oxidation blockers – biochemical, H2O2 detection, luminescence, cherry-pick, dose response (AID 493248)
FAD-linked sulfhydryl oxidase ALR, sequence (P55789 whole entry): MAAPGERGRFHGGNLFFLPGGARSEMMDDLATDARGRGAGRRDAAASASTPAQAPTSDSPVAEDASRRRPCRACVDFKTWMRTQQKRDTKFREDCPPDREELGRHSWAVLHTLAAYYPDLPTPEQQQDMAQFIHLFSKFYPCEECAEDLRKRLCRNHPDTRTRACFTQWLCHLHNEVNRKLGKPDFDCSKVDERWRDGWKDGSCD

[8] = viability of uninfected HEp-2 cells – cell-based, HTS, cytotoxicity control for RSV inhibitor project, dose response (AID 2410); assay type: functional; conditions: human respiratory syncytial virus
[9] = target: T4, Rac GTPase-activating protein 1 (Homo sapiens, UniProt Q9H0H5); experiment: blockers of MgcRacGAP-driven Rac1 GTP hydrolysis – biochemical, ADP Hunter fluorescence, primary and confirmatory, confirmation (AID 624330); assay type: functional
T4 sequence (Q9H0H5 whole entry): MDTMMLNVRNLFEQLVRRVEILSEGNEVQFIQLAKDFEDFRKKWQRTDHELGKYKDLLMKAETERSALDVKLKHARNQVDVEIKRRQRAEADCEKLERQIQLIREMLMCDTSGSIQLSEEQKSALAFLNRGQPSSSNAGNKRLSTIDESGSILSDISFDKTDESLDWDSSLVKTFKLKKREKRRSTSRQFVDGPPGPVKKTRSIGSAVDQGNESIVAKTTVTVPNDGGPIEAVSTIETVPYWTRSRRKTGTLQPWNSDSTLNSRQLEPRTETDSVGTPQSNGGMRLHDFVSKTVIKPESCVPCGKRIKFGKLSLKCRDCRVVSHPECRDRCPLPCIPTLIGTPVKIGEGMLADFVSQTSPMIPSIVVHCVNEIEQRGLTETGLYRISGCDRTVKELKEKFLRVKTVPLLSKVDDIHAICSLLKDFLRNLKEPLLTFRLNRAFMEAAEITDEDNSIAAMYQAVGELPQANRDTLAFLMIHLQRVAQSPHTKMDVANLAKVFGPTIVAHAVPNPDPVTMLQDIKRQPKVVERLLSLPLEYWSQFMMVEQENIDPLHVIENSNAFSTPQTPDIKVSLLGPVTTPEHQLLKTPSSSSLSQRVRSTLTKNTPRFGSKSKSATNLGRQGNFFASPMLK

Genome polyprotein, sequence (P29990 2492-3391 limits assumed): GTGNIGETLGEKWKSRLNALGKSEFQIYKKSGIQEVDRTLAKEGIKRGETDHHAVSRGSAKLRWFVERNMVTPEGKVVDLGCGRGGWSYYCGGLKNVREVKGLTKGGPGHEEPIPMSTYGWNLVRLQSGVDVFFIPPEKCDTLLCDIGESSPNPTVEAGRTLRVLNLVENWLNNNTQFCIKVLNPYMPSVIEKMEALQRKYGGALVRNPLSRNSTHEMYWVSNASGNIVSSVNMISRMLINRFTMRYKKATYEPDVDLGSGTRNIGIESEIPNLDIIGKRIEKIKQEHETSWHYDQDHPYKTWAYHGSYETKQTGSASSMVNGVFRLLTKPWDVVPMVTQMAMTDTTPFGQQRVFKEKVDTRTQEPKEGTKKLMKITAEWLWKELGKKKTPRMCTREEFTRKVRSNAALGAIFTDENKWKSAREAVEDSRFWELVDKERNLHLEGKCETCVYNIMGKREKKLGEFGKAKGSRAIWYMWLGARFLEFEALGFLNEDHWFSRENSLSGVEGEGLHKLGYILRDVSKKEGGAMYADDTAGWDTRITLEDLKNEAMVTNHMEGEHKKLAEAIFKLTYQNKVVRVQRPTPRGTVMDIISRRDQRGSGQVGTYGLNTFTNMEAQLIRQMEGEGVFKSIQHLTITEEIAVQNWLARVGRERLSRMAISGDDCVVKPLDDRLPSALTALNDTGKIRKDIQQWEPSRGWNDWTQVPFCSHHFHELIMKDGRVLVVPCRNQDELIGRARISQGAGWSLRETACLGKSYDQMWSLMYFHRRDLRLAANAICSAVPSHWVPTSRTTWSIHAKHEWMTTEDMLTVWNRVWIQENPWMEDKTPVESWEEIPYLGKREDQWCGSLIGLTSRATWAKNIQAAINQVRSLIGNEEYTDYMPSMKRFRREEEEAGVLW

O=C1ON=C(c2ccccc2)/C1=C/c1ccc(OS(=O)(=O)c2ccccc2)cc1
IC50 (Genome polyprotein): 32.3 µM (active)
IC50 (Large T antigen): 67.3 µM (active)

CC(C)(C)C1=CC(=Nc2ccccc2N)C=C(C(C)(C)C)C1=O
IC50 (Nonstructural protein 1): 10.9 µM (active)

COc1ccc(/C=N/NC(=O)c2nonc2C)cc1
EC50 [1]: 2.84 µM (active)
EC50 [2]: 9.4 µM (active)

COCc1cc(C)nc(SCC[N+](C)(C)CC(=O)c2ccc(Br)cc2)c1C#N
EC50 [1]: > 112 µM (not active)
EC50 [2]: > 112 µM (not active)

CCC[C@@H](CN1CCC[C@H]1CN1C(N)=NC[C@H]1CC(C)C)N1C[C@@H]([C@H](C)CC)N(CCCC2CCCC2)C1=N
IC50 [3]: > 20 µM (inactive)

CCN(CC)CCCN(Cc1cc2cc(OC)ccc2nc1O)C(=O)Nc1ccc(F)cc1
AC50 [4]: 12.4 µM (active)

CCOC(=O)N1CCC(N2C(=O)c3ccccc3C2Nc2cc(OC)c(OC)c(OC)c2)CC1 (stereo not drawn)
EC50 [1]: 94.3 µM (active)
EC50 [2]: > 112 µM (not active)
IC50 (H9c2): > 79 µM (inactive)

COC(=O)c1ccccc1NC(=O)COC(=O)c1ccccc1N=Nc1ccc(N(C)C)cc1
IC50 (Nonstructural protein 1): 21.4 µM (active)

COc1ccc2cc(C(=O)N3CCN(Cc4ccc5c(c4)OCO5)CC3)[nH]c2c1
EC50 [1]: > 112 µM (not active)
EC50 [5]: > 53 µM (inactive)
EC50 [2]: > 112 µM (not active)
IC50 [6]: > 47.1 µM (inactive)

Cc1ccc(NC(=O)Cc2nc(CCl)cs2)cc1
EC50 [1]: > 112 µM (not active)
EC50 [2]: > 112 µM (not active)

CCn1cnc2cc(NCc3ccc(N(C)C)cc3)ccc21
AC50 [7]: 5.86 µM (active)
IC50 (Large T antigen): 15.8 µM (active)

CC(C)N1C[C@@]23C=C[C@@H](O2)C(C(=O)OCc2ccccc2)[C@H]3C1=O (stereo partly drawn)
EC50 [1]: > 112 µM (not active)
EC50 [2]: > 112 µM (not active)

COc1ccccc1NS(=O)(=O)c1ccc(NC(C)=O)cc1
EC50 [1]: > 112 µM (not active)
EC50 [2]: > 112 µM (not active)

O=C(CCNC(=O)Cn1ccc2ccccc2c1=O)NCCN1CCN(c2ccccc2F)CC1
IC50 [3]: > 20 µM (inactive)

CCn1ncc(CN2CCCC(C(=O)Nc3cccc(-c4cc5ccccc5[nH]4)c3)C2)c1C (stereo not drawn)
IC50 (Nonstructural protein 1): > 100 µM (active)
CC50 [8]: 16.1 µM (active)

Cc1ccccc1N1C(=O)NC(=O)/C(=C\c2cnn(-c3ccccc3)c2)C1=O
IC50 [9]: 118 µM (active)
IC50 (Genome polyprotein): > 100 µM (active)
IC50 (Large T antigen): 44.9 µM (active)

CN(C)c1ccc(NC(=O)CN2CCC(O)(c3ccccc3)CC2)cc1
IC50 (Large T antigen): 7.29 µM (active)

CCN(CC)CCC(=O)c1ccc(F)cc1
AC50 [4]: > 20 µM (inactive)

CC1CC(C)(C)CC2(C1)NC(=O)N(CC(=O)Nc1ccc3[nH]c(O)nc3c1)C2=O (stereo not drawn)
IC50 [3]: > 20 µM (inactive)

CSC1=NSC2=NC(=O)/C(=C/c3coc4ccccc4c3=O)C(=N)N12
AC50 [4]: 16.5 µM (active)

CCN(CC)CCN1C(=O)C(O)=C(C(=O)c2ccc(C)cc2)C1c1cccnc1 (stereo not drawn)
IC50 (Large T antigen): 18.9 µM (active)

O=C(Nc1ccccc1C(=O)N/N=C/c1ccncc1)c1ccccc1
EC50 [1]: 3.06 µM (active)
EC50 [2]: < 0.088 µM (active)
